Data on one compound can be found in patent US20240408211A1, “COMPOSITIONS AND METHODS OF AMELIORATING AVERSIVENESS OF AVERSIVE STIMULI BY INHIBITION OF PURINERGIC RECEPTORS” (Monell Chemical Senses Center, priority 2021, published 2024).

Each structure is given as a SMILES string. Like-named read-outs stand apart in the source and are kept apart here.

Series [1] has as its system mice. To be noted: intraperitoneal administration; cited from earlier work.
For series [2] the following is noted: intraperitoneal, cited from earlier work.
Series [3] deals with T1, P2X2/3 (Homo sapiens, UniProt P56373+Q9UBL9).
T1 construct: expressed in transfected cells; host or cells: HEK293
T1 sequence (Q9UBL9 1-471): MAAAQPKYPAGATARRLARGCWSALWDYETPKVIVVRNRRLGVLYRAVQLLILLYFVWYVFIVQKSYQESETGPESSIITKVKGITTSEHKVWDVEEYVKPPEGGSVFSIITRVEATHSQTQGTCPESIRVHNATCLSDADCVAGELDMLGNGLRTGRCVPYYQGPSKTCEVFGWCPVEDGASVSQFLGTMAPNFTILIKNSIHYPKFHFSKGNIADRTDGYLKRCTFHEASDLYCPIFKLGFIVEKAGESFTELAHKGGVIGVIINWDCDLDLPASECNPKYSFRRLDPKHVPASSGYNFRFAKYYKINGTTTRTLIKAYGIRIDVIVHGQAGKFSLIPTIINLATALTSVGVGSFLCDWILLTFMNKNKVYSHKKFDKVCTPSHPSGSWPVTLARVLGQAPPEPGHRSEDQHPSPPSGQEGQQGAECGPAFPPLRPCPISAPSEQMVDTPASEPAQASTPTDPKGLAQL
T1 sequence (P56373 1-397): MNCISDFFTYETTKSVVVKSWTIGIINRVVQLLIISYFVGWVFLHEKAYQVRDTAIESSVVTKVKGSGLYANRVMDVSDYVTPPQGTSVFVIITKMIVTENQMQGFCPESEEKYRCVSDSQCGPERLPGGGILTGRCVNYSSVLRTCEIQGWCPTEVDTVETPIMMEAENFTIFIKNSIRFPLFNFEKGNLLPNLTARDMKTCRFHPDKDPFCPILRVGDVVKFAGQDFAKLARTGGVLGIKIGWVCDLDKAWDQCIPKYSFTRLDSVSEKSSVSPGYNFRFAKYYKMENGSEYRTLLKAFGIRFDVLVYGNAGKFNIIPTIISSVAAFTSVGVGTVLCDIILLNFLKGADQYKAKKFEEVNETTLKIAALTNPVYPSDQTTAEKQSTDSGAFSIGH
Description: P2X2/3 stable HEK293 cell lines responding to α,β-meATP (screening assay). The format is cell-based. The conditions noted are these: P2X2/3 stable HEK293 lines; FIGS. 8A and 8B. As for the experimental part: In this study, we built stable cell lines expressing P2X2/3 in HEK293 cells via transfection with either P2X2-Neo or P2X3-Zeo constructs, following which selection was performed using Zeocin, G418. Picked clones were grown out from single cells (cultured continuously in the presence of Zeocin and G418) using cloning rings.
The resulted stable cell lines are used for characterizing putative taste-blockers.

The subject of series [4] is chorda tympani nerve. The conditions noted are these: cited from earlier work.
Series [5] has as its system P2X3/P2X2/3. To be noted: cited from earlier work.
The subject of series [6] is P2X3/P2X2/3 receptors on bladder afferent nerves. The conditions noted are these: rats; cited from earlier work.
The conditions of series [7]: solutions (2 mg/mL) and suspensions in acidic media; room temperature; cited from earlier work.

In the case of `COc1cc(C(C)C)c(Oc2cnc(N)nc2N)cc1I` [AF-353, 5-[5-iodo-4-methoxy-2-(1-methylethyl)phenoxy]-2,4-pyrimidinediamine], the “preference for SC-45647 shown by vehicle-administered mice” value in series [1] is “eliminated”. The plasma concentration in series [2] (0.25 mg/kg) is 1.3 µM; in series [2] (6 mg/kg), 44 µM. Further, in series [3], the “response of the stable cell lines” value is “dose-dependent manner”. In series [4] (1.0 or 1.1 mM flowed over the anterior tongue for 10 min, at 10 and 30 min after application), the “chorda tympani nerve responses elicited by orally applied taste stimuli” value is recorded as “eliminated”. Further, the “chorda tympani nerve responses to all tastants” value in series [4] (intraperitoneal injection, 6 mg/kg) is “abolished”. The “decrease of chorda tympani nerve responses” value in series [4] (intraperitoneal, 0.25 mg/kg) was about 50%. Besides, the P2X3/P2X2/3 antagonist potency entry in series [5] is “high”. Further, the “activity mediated by P2X3/P2X2/3 receptors on bladder afferent nerves” value in series [6] was “counteracts”. Also, in series [7], the “physically and chemically stable for” value is reported as “at least 4 weeks”.
